Assay [1] concerns Guinea pig tracheal smooth muscle. The assay is described as follows: Electrical field stimulated guinea pig tracheal smooth muscle contraction (ex vivo). As to conditions: sub-maximal EFS, cumulative dose response curve, three animals pooled; 95% Cl 0.78-0.94; read-out: IC50 (inhibition of EFS-induced baseline contraction). The source says:
Electrical Field Stimulated Guinea Pig Tracheal Smooth Muscle In Vitro (ex vivo) Model for the Assessment of Bronchodilation.
Animals: Guinea pig, Dunkin Hartley, male, Full barrier-bred and certified free of specific micro-organisms on receipt 525-609 g on the experimental day, Harlan UK Ltd. Guinea pigs are housed in a group of 4 in solid-bottomed cages with Gold Flake bedding in a controlled environment (airflow, temperature and humidity). Food (FD1, Special Diet Services) and water are provided ad libitum.
On each experimental day, a guinea pig is killed by exposure to a rising concentration of CO2 and the trachea removed. […] Tissues are washed with Kreb's buffer and stimulated using the previously determined sub-maximal voltage for 1 hour to establish a stable baseline contraction prior to assessment of compound activity.
A cumulative dose response curve (DRC) to each test substance is then performed and changes in smooth muscle contraction measured. The effect of each test substance in each experiment is expressed as a percentage inhibition of the baseline contraction, normalized to the relevant vehicle controls. […] The data from all three experiments are pooled, the DRC plotted, and the test substance potency and efficacy determined.

Assay [2] deals with obese mice. The conditions noted are these: cited from earlier work.

Molecules are shown by their SMILES.

On to `CC(C)[N+]1(C)[C@@H]2CC[C@H]1CC(OC(=O)C(CO)c1ccccc1)C2` (some centres unmarked) [Ipratropium bromide], for which the IC50 (as a rule, the midpoint of a concentration-inhibition curve) in assay [1] came to 860 pM.
For the compound `O=C(O)CCCCN(CCc1cc(F)ccc1OCc1ccc(-c2ccc(C(F)(F)F)cc2)cc1)Cc1ccc(C(=O)O)cc1` [BAY 60-2770], the “effect on overactive bladder” value in assay [2] is given as “ameliorates overactive bladder”.

Values taken from patent US10844064B2, “sGC stimulators” (Cyclerion Therapeutics, Inc., priority 2014, dated 2020).
